Experimental data taken from patent US10633407B2, “14-membered ketolides and methods of their preparation and use” (President and Fellows of Harvard College, priority 2014, dated 2020).
≈ marks a conversion by molar mass, not a printed value.

Key:
Experiment in all cases: CLSI broth dilution MIC determination
Assay type in all cases: cell-based
[1] = tested on: S. pyogenes Macrolide-resistant; conditions: Streptococcus pyogenes, S. pyogenes Macrolide-resistant (MP-625 UNT-014); read-out: MIC
[2] = tested on: P. aeruginosa MP-7 PAO1; conditions: Pseudomonas aeruginosa, read-out: MIC
[3] = tested on: K. pneumoniae MP-546 Clinical-MDR; conditions: Klebsiella pneumoniae, read-out: MIC
[4] = tested on: K. pneumoniae ATCC 10031; conditions: Klebsiella pneumoniae, ATCC10031, K. pneumoniae ATCC 10031 (MP-14); read-out: MIC
[5] = tested on: S. pyogenes ATCC 19615; conditions: Streptococcus pyogenes, ATCC19615, S. pyogenes ATCC 19615 (MP-19); read-out: MIC
[6] = tested on: A. baumannii MP-577 Clinical-AZT low; conditions: Acinetobacter baumannii, read-out: MIC
[7] = tested on: P. aeruginosa MP-8 PAO1:mex (mex-oprM-deletion); conditions: Pseudomonas aeruginosa, PAO1
[8] = tested on: A. baumannii ATCC 19606; conditions: Acinetobacter baumannii, ATCC19606; A. baumannii ATCC 19606 (MP-15); read-out: MIC
[9] = tested on: A. baumannii MP-576 Clinical-MDR; conditions: Acinetobacter baumannii, read-out: MIC
[10] = tested on: K. pneumoniae MP-548 clinical; conditions: Klebsiella pneumoniae, MP548CLINICAL, read-out: MIC
[11] = tested on: S. aureus ATCC 29213; conditions: Staphylococcus aureus, ATCC29213; S. aureus ATCC 29213 (MP-12); read-out: MIC
In short: (§1)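 Compounds are serially diluted in broth per CLSI standard methods to give the MIC; azithromycin and solithromycin act as comparator macrolides in many cases, and resistance genotypes may be inducible or constitutive.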

[12] = tested on: S. aureus erm A genotype; conditions: Staphylococcus aureus; S. aureus erm A genotype (MP-620 UNT-146); read-out: MIC
In short: as §1

[13] = tested on: S. pneumoniae mef A genotype (first strain so labelled); conditions: Streptococcus pneumoniae, first strain (MP-626 UNT-038)
In short: as §1

[14] = tested on: S. pneumoniae mef A genotype (second strain so labelled); conditions: Streptococcus pneumoniae, second strain (MP-627 UNT-039), read-out: MIC
In short: as §1

[15] = tested on: S. aureus (MRSA) MP-513 ST-228 cErm (Clinical-cErm); conditions: Staphylococcus aureus, read-out: MIC
In short: as §1

[16] = tested on: S. aureus MP-17 ATCCBAA-977 (BAA 977 iErm); conditions: Staphylococcus aureus; S. aureus MP-17, ATCCBAA-977, iErm; read-out: MIC
In short: as §1

[17] = tested on: E. coli MP-9 ATCC25922:tolC; conditions: Escherichia coli, ATCC25922
In short: as §1

[18] = tested on: E. coli MP-532 clinical-cErmB; conditions: Escherichia coli
In short: as §1

[19] = tested on: E. coli ATCC 25922; conditions: Escherichia coli, ATCC25922, E. coli ATCC 25922 (MP-4); read-out: MIC
In short: as §1

[20] = tested on: E. coli MP-541 clinical; conditions: Escherichia coli, MP541CLINICAL, read-out: MIC
In short: as §1

[21] = tested on: S. aureus MRSA: USA300; conditions: Staphylococcus aureus; S. aureus MRSA: USA300 (MP-549, msr(a)); read-out: MIC
In short: as §1

[22] = tested on: S. pneumoniae ATCC 49619; conditions: Streptococcus pneumoniae, ATCC49619, S. pneumoniae ATCC 49619 (MP-21); read-out: MIC
In short: as §1

[23] = tested on: S. aureus MRSA: USA100; conditions: Staphylococcus aureus; S. aureus MRSA: USA100 (MP-618 UNT-096); read-out: MIC
In short: as §1

[24] = tested on: S. aureus USA600, GISA; conditions: Staphylococcus aureus; S. aureus USA600, GISA (MP-619 UNT-120); read-out: MIC
In short: as §1

[25] = tested on: E. faecalis Vancomycin-resistant; conditions: Enterococcus faecalis, E. faecalis Vancomycin-resistant (UNT-039); read-out: MIC
[26] = tested on: P. aeruginosa ATCC 27853; conditions: Pseudomonas aeruginosa, ATCC27853; P. aeruginosa ATCC 27853 (MP-3); read-out: MIC
[27] = tested on: E. faecalis ATCC 29212; conditions: Enterococcus faecalis, ATCC29212, E. faecalis ATCC 29212 (MP-24); read-out: MIC

SMILES	MIC [1]	MIC [2]	MIC [3]	MIC [4]	MIC [5]	MIC [6]	MIC [7]	MIC [8]	MIC [9]	MIC [10]	MIC [11]	MIC [12]	MIC [13]	MIC [14]	MIC [15]	MIC [16]	MIC [17]	MIC [18]	MIC [19]	MIC [20]	other results
CC[C@H]1OC(=O)[C@@](C)(F)C(=O)[C@H](C)[C@@H](O[C@@H]2OC(C)CC(N(C)C)C2O)[C@](C)(OC)C[C@@H](C)C(=O)[C@H](C)[C@H]2N(CC#CCn3cc(-c4cc(F)ccn4)nn3)C(=O)O[C@]12C (stereo partly drawn) [FSM-100563]	< 0.03 µg/mL	64 µg/mL (≈ 75.7 µM)	> 64 µg/mL	8 µg/mL (≈ 9.47 µM)	< 0.03 µg/mL	32 µg/mL (≈ 37.9 µM)	8 µg/mL (≈ 9.47 µM)	8 µg/mL (≈ 9.47 µM)	> 64 µg/mL	64 µg/mL (≈ 75.7 µM)	0.06 µg/mL (≈ 0.071 µM)	16 µg/mL (≈ 18.9 µM)	< 0.03 µg/mL	< 0.03 µg/mL	16 µg/mL (≈ 18.9 µM)	0.06 µg/mL (≈ 0.071 µM)	2 µg/mL (≈ 2.37 µM)	> 64 µg/mL	16 µg/mL (≈ 18.9 µM)	16 µg/mL (≈ 18.9 µM)	MIC [21]: 0.125 µg/mL (≈ 0.148 µM); MIC [22]: < 0.03 µg/mL; MIC [23]: 32 µg/mL (≈ 37.9 µM); MIC [24]: 16 µg/mL (≈ 18.9 µM); MIC [25]: 2 µg/mL (≈ 2.37 µM); MIC [26]: 32 µg/mL (≈ 37.9 µM); MIC [27]: < 0.03 µg/mL
CC[C@H]1OC(=O)[C@H](C)C(=O)[C@H](C)[C@@H](O[C@@H]2OC(C)CC(N(C)C)C2O)[C@](C)(OC)C[C@@H](C)C(=O)[C@H](C)[C@H]2N(CC#CCn3cc(-c4cc(F)ccn4)nn3)C(=O)O[C@]12C (stereo partly drawn) [FSM-100566]	< 0.03 µg/mL	> 64 µg/mL	> 64 µg/mL	8 µg/mL (≈ 9.67 µM)	< 0.03 µg/mL	64 µg/mL (≈ 77.4 µM)	8 µg/mL (≈ 9.67 µM)	16 µg/mL (≈ 19.3 µM)	> 64 µg/mL	64 µg/mL (≈ 77.4 µM)	0.06 µg/mL (≈ 0.0726 µM)	> 64 µg/mL	< 0.03 µg/mL	< 0.03 µg/mL	> 64 µg/mL	0.06 µg/mL (≈ 0.0726 µM)	2 µg/mL (≈ 2.42 µM)	> 64 µg/mL	32 µg/mL (≈ 38.7 µM)	32 µg/mL (≈ 38.7 µM)	MIC [21]: 0.125 µg/mL (≈ 0.151 µM); MIC [22]: < 0.03 µg/mL; MIC [23]: > 64 µg/mL; MIC [24]: 64 µg/mL (≈ 77.4 µM); MIC [25]: 8 µg/mL (≈ 9.67 µM); MIC [26]: 64 µg/mL (≈ 77.4 µM); MIC [27]: < 0.03 µg/mL
